Test results published in article PMC9704608, “Anti-leishmanial physalins—Phytochemical investigation, in vitro evaluation against clinical and MIL-resistant L. tropica strains and in silico studies” (PLOS ONE, 2022).
Converted amounts (≈) assume the structure as drawn. Where two headings read alike, the source gives them in different places.

Key:
[1] = test system: 3T3 (mouse fibroblast) cells; test: Cytotoxicity (MTT) against 3T3 cell line; format: cell-based
Protocol: (§1) The cytotoxicity of the test compounds against normal cell lines was evaluated through MTT (3-[4, 5-dimethylthiazole-2-yl]-2, 5-diphenyl-tetrazolium bromide] colorimetric assay in 96-well flat-bottomed microplates. The 3T3 (mouse fibroblast) and BJ (human fibroblast) were cultured Dulbecco’s Modified Eagle Medium, supplemented with 5% of fetal bovine serum (FBS), 100 IU/mL of penicillin and 100 μg/mL of streptomycin in 75 cm2 flasks, and then incubated in 5% CO2 incubator at 37°C. The growing cells were counted by using a haemocytometer, and diluted with the particular medium. The 5x10^4 cells/mL of the cell culture was prepared, and a sample […] was introduced into each well. The medium was removed after overnight incubation, and 200 μL of fresh medium was added with different concentrations of compounds (1–30 μM). After 48 hours, 200 μL MTT (0.5 mg/mL) was added, and the incubation was further continued for 4 hrs. After that time, 100 μL of DMSO was added to each well. The absorbance was measured using a micro plate reader (Spectra Max Plus, Molecular Devices, CA, USA) at 570 nm for the extent of MTT reduction to formazan within the cells. The cytotoxicity was recorded as CC50 against cells by using Soft- Max Pro software. Doxorubicin and cycloheximide were used as positive control. The experiments were run in triplicate.

[2] = Cytotoxicity (MTT) against 3T3 cell line; format: cell-based, mouse; conditions: pure compounds; mouse fibroblast, 48 h; read-out: 3T3 Cell line CC50 (μM± SD)
Protocol: as §1

L. major promastigotes = test: Promastigote growth inhibition assay (MTT), L. major; format: cell-based, Leishmania major
Protocol: (§2) L. major and L. tropica (Clinical isolates) promastigotes were grown at […] in RPMI-1640 (Sigma) medium containing 10% of heat-inactivated (56°C for 30 min) fetal bovine serum. Cell viability was initially evaluated by wet mount method by observing the live cells under compound microscope. Parasite growth was assessed by counting live / motile promastigotes in a Neubauer chamber. Viable cell count was used for the further experimentations (treatments).
(§3) The promastigotes in their log phase were used in 96-well plates. 1 × 10^6 wild-type and resistant promastigotes were dispensed in 96 96-well plates, and incubated with tested compounds at a range concentration of 200–10 μM at 27°C for 72 h. After incubation of 72 h, MTT dye (3-(4,5-dimethylthiazol-2-yl)-2,5-diphenyl-2H-tetrazolium bromide) was added and further incubate it for 3–4 h. Amphotericin B, pantamidine and miltefosine were used as the positive control, untreated promastigotes were used as negative control moreover DMSO control was also added in the study as a stock solution of the compounds that were prepared in DMSO. All the experiments were performed in triplicates. After completion of the experiment the absorbance by Multiskan ascent plate reader at 452 nm and percent inhibition was calculated by the following formula.
(§4) Cytotoxic concentration (%) = [100- (Absorbance of test)/ (Absorbance of solvent control) ×100] %.

[3] = test system: MIL-resistant L. tropica promastigotes; test: Growth inhibition assay (MTT) against MIL-resistant line; format: cell-based, Leishmania tropica; conditions: miltefosine-unresponsive strain, promastigotes, 72 h
Protocol: as §3, §4
Promastigote cultures tL. tropica (Clinical isolates) were maintained at 26°C in RPMI-1640 medium containing 15% FBS and 1% penicillin–streptomycin mixture.
Generation of miltefosine-unresponsive strain was carried under high MIL pressure by in vitro passage with a stepwise increase in the MIL concentration. At each step, parasites were cultured and passaged every 3–4 days at an initial concentration of 5x10^5 promastigotes/mL in order to achieve -stable growth as compared to the wildtype isolate. Growth rates were measured for resistant populations and compared with the WT strain. Parasites were counted at an initial concentration of 5x10^5 parasites/mL and growth was measured daily using a Neubauer chamber until the population reached the stationary phase. Furthermore, the fluorescence microscopic investigations via DAPI stain were also carried out to supplement the study.

[4] = test system: BJ (human fibroblast) cells; test: Cytotoxicity (MTT) against BJ cell line; format: cell-based
Protocol: as §1, with “The medium was removed after overnight incubation, and 200 μL of fresh medium was added with different concentrations of compounds (1–30 μM).” left out

[5] = Cytotoxicity (MTT) against BJ cell line; format: cell-based, human; conditions: pure compounds; human fibroblast, 48 h; read-out: BJ cell line CC50 (μM± SD)
Protocol: as §1, with “The medium was removed after overnight incubation, and 200 μL of fresh medium was added with different concentrations of compounds (1–30 μM).” left out

L. tropica promastigotes = test: Promastigote growth inhibition assay (MTT), L. tropica clinical isolates; format: cell-based, Leishmania tropica
Protocol: as §2, §3, §4

[6] = test system: BJ (human fibroblast) cells; test: Cytotoxicity (MTT) against BJ cell line; format: cell-based; conditions: cytotoxicity of extracts and fractions, read-out: BJ (human fibroblast) IC50 (μg/ml ± SD)
[7] = test system: 3T3 (mouse fibroblast) cells; test: Cytotoxicity (MTT) against 3T3 cell line; format: cell-based; conditions: cytotoxicity of extracts and fractions, read-out: 3T3 (mouse fibroblast) IC50 (μg/ml ± SD)

Compound	L. tropica SI (CC50/ IC50) ([1]; CC50 3T3 cell line / IC50 L. tropica)	IC50 ([1]; Mus musculus, Fibroblast, cytotoxicity of compounds 1-9, read-out: 3T3 (mouse fibroblast) IC50 (μM ± SD)) [µM]	CC50 [2] [µM]	L. major SI (CC50/ IC50) (L. major promastigotes; CC50 3T3 mouse fibroblast cell line / IC50 L. major)	L. major SI (CC50/ IC50) (L. major promastigotes; CC50 BJ fibroblast cell line / IC50 L. major)	IC50 (L. major promastigotes; Leishmania major, pure compounds, standard drugs, promastigotes, 72 h, read-out: L. major IC50 (μM± SD)) [µM]	anti-leishmanial activity against promastigotes of L. major (in words) (L. major promastigotes; in vitro)	MIL Resistant L. tropica IC50 (μM± SD) [3]	L. major SI (CC50/ IC50) ([4]; CC50 BJ cell line / IC50 L. major)	IC50 ([4]; Homo sapiens, Fibroblast, cytotoxicity of compounds 1-9, read-out: BJ (human fibroblast) IC50 (μM± SD)) [µM]	CC50 [5] [µM]	L. tropica SI (CC50/ IC50) (L. tropica promastigotes; CC50 3T3 mouse fibroblast cell line / IC50 L. tropica)	L. tropica SI (CC50/ IC50) (L. tropica promastigotes; CC50 BJ fibroblast cell line / IC50 L. tropica)	IC50 (L. tropica promastigotes; Leishmania tropica, pure compounds, standard drugs, promastigotes, clinical isolate, 72 h, read-out: L. tropica IC50 (μM± SD)) [µM]	IC50 [6] [µg/mL]	IC50 [7] [µg/mL]
C=C1C(=O)OC2CC1(C)C1C(=O)C3(O)OC14C(O)(CCC1C3CC3OC35CC=CC(=O)C15C)C(=O)OC24C (stereo not drawn) [Compound 6, 5β, 6β-epoxyphysalin C]	0.025	0.6 ± 0.04	0.6 ± 0.04	0.007	1.19	84.8 ± 1.56	no significant activity	inactive	1.19	10.4 ± 1	> 100	0.025	4.20	23.8 ± 1.1	–	–
COc1cccc2c1C(=O)c1c(O)c3c(c(O)c1C2=O)C[C@@](O)(C(=O)CO)C[C@@H]3O[C@H]1C[C@H](N)[C@H](O)[C@H](C)O1 [Doxorubicin]	–	–	–	–	–	–	–	–	–	–	–	–	–	–	0.1 ± 0.02 (≈ 0.184 µM)	0.1 ± 0.02 (≈ 0.184 µM)
